Measurements: patent US9980937B2, “Therapeutic agent for Alzheimer's disease” (NAGASAKI UNIVERSITY, priority 2014, dated 2018)

Assays:
[1] = system: neprilysin, α-secretase, β-secretase; assay: overall conclusion on modulation of neprilysin, α-secretase and β-secretase (Example 1); type: cell-based, human; details: conclusion from the results of Example 1
Method: (§1) APP-H4 cells were seeded to a 6-well plate at a density of 12×10^4 cells/1.5 mL, and cultured in Dulbecco's modified Eagle's medium (DMEM; Nacalai Tesque, Inc.) added with 10% fetal bovine serum (FBS; Equitech-Bio, Inc. [Kerrville, Tex., USA]), 100 U/mL penicillin+100 μg/mL streptomycin (Nacalai Tesque, Inc.). After culture for 24 hr, the culture supernatant was removed, and the medium was exchanged with a medium with reduced use amount of serum, Opti-MEM (registered trade mark) I Reduced Serum Medium (Life Technologies Corporation, Carlsbad, Calif., USA) (1 mL). A polyphenol derivative (1 μL) to be the test target was added, and the mixture was further cultured for 48 hr. After culture, the culture supernatant was recovered in a tube (total amount 1.5 mL), centrifuged at 4,000×g/4° C./10 min to remove dead cells, and the supernatant (800 μL) was placed in a new tube. The culture supernatant was preserved at −80° C. before sample preparation. The cells were washed twice with ice-cooled phosphate-buffered saline (PBS). Thereafter, the cells were scraped from the plate using a Cell Scraper. The cells were recovered in a 1.5 mL tube and centrifuged at 4,000×g/4° C./10 min. The supernatant was removed and the cells were preserved at −80° C. before sample preparation. The frozen cells were lysed in 40 μL of solubilization buffer containing 1% Triton X-100, protease inhibitor cocktail Complete™ EDTA-free (Roche) and 50 mM Tris-HCl on ice. The cell lysate was incubated on ice for 60 min, centrifuged at 4° C., 21,900×g for 30 min, and the supernatant was recovered and used as a solubilization cell extract.
The neprilysin-dependent neutral endopeptidase activity of the cell extract was measured fluorescence quantitatively by an indirect coupled enzyme assay method. As a neutral endopeptidase substrate, succinyl-Ala-Ala-Phe-7-amino-4-methylcoumarin (suc-AAF-AMC) (1-1315; Bachem) was used. Total 50 μL of the reaction mixture was prepared such that the final concentration was substrate 0.1 mM suc-AAF-AMC, protein in the cell extract 1-6 μg, 100 mM MES buffer (pH 6.5). With the time of addition of the substrate as the start of the reaction, the mixture was reacted at 37° C. for 1 hr, and Phe-AMC was cut out from the substrate by neutral endopeptidase. Then, to the reaction mixture was added a solution (2.5 μL) containing 0.1 mg (0.4 unit equivalent)/mL leucine aminopeptidase (L-5006; Sigma-Aldrich), and 0.2 mM phosphoramidon (4082; Peptide Institute). The mixture was reacted at 37° C. for 30 min, and Phe (phenylalanine) residue was cut out from Phe-AMC by aminopeptidase. Using microplate spectrometer Infinite M-1000 (Tecan), the fluorescence intensity of free AMC was measured by measuring at an excitation wavelength 390 nm and a fluorescence wavelength 460 nm on a half-well size 96-well black plate (#3695; Corning). The neprilysin-dependent neutral endopeptidase activity was determined based on a decrease in the activity due to 10 μM thiorphan (T-6031; Sigma-Aldrich) as a neprilysin specific inhibitor.
After thawing from −80° C., the aforementioned culture supernatant was mixed with 6×SDS-polyacrylamide gel electrophoresis (SDS-PAGE) sample buffer (Nacalai Tesque, Inc.) at a ratio of 5:1, boiled for 5 min, and used as a detection sample of APPsα which is a metabolite of APP by α-secretase and APPsβ which is a metabolite of APP by β-secretase in western blot analysis. […]

[2] = system: neprilysin; assay: neprilysin-dependent neutral endopeptidase activity of APP-H4 cell extract (suc-AAF-AMC coupled enzyme assay); type: cell-based, human; details: APP-H4 cells, 48 hr, 1 or 10 μM; activity without polyphenol derivative = 1 (FIG. 1)
Method: as §1
The total protein concentration of the cell extract was determined by a BCA protein assay kit (Takara) by using BSA as the standard solution. The final concentration of the test compound used was 1 μM or 10 μM, and quantification was performed using each solvent as a control.
The neprilysin-dependent neutral endopeptidase activity of the cell extract was measured fluorescence quantitatively by an indirect coupled enzyme assay method. […] Total 50 μL of the reaction mixture was prepared such that the final concentration was substrate 0.1 mM suc-AAF-AMC, protein in the cell extract 1-6 μg, 100 mM MES buffer (pH 6.5). With the time of addition of the substrate as the start of the reaction, the mixture was reacted at 37° C. for 1 hr, and Phe-AMC was cut out from the substrate by neutral endopeptidase. […] The mixture was reacted at 37° C. for 30 min, and Phe (phenylalanine) residue was cut out from Phe-AMC by aminopeptidase.

[3] = system: ADAM17; assay: α-secretase mRNA expression, ADAM17 (real-time PCR); type: cell-based, human; details: control = 1
Method: In the same manner as in the above-mentioned 2, total RNA was prepared using a High Pure RNA Isolation kit (Roche 11828665001) from the cells to be the test target cells, which were treated with each polyphenol derivative and cultured, and subjected to a reverse transcription reaction using PrimeScript RT-PCR kit (TaKaRaRR014A) to give a sample (cDNA) for real-time PCR.
The prepared sample, Premix Ex taq (Perfect Real Time) (TaKaRaRR039A) and a probe, and a primer were mixed in a tube (TaKaRa SC910A), and real-time PCR reaction (initial denaturation: 95° C. 30 sec, PCR reaction: 95° C. 5 sec, 60° C. 20 sec, 40 times) was performed by Smart Cycler II System machine (TaKaRa).
The 5′-terminus of the probe was modified by a fluorescent substance FAM, and the 3′-terminus was modified by a quencher substance TAMRA, respectively.

[4] = system: neprilysin; assay: neprilysin expression amount at protein level (western blot, APP-H4 cells); type: cell-based, human; details: 48 hr, standardized to β-actin (FIG. 2)
Method: as §1
The aforementioned cell extract was mixed with 6×SDS-polyacrylamide gel electrophoresis (SDS-PAGE) sample buffer (Nacalai Tesque, Inc.) at a ratio of 5:1, boiled for 5 min, and used as a detection sample of neprilysin, α-secretase and β-secretase proteins.
The PVDF membrane after transfer was washed with a wash buffer and immersed in a blocking buffer to prevent non-specific binding of the primary antibody, and a blocking reaction was performed at room temperature for 1 hr. […] The PVDF membrane after the reaction was washed with the wash buffer and the secondary antibody (horseradish peroxidase conjugated anti-mouse or anti-rabbit IgG (1:10,000; GE Healthcare UK Ltd.)) corresponding to the primary antibody was reacted at room temperature for 1 hr and detection was carried out using the ECL Select Western Blotting Detection Kit (GE Healthcare UK Ltd.).
The signal intensity of the band was quantified using a densitometer LAS-4000 (GE Healthcare UK Ltd.) and image analysis software Science Laboratory 2003 Image Gauge Version 4.23 (Fujifilm Holdings Corporation, Tokyo, Japan).

[5] = system: APP; assay: extracellularly secreted APPsα/APPsβ ratio (western blot); type: cell-based, human; details: APP-H4 culture supernatant (FIG. 2)
Method: as §1
After thawing from −80° C., the aforementioned culture supernatant was mixed with 6×SDS-polyacrylamide gel electrophoresis (SDS-PAGE) sample buffer (Nacalai Tesque, Inc.) at a ratio of 5:1, boiled for 5 min, and used as a detection sample of APPsα which is a metabolite of APP by α-secretase and APPsβ which is a metabolite of APP by β-secretase in western blot analysis.
The PVDF membrane after transfer was washed with a wash buffer and immersed in a blocking buffer to prevent non-specific binding of the primary antibody, and a blocking reaction was performed at room temperature for 1 hr. Thereafter, it was reacted with a primary antibody (APPsα, anti-human APPsα mouse monoclonal antibody (2B3, Immuno-Biological Laboratories Co., Ltd., Gunma, Japan) (3 μg/mL); APPsβ, anti-APPsβ, rabbit polyclonal antibody, 1 μg/mL) to perform an antigen-antibody-reaction at 4° C. for not less than 16 hr. […]
(§2) The signal intensity of the band was quantified using a densitometer LAS-4000 (GE Healthcare UK Ltd.) and image analysis software Science Laboratory 2003 Image Gauge Version 4.23 (Fujifilm Holdings Corporation, Tokyo, Japan). […]

[6] = system: α-secretase; assay: α-secretase activity (APPsα, western blot); type: cell-based, human; details: APP-H4 culture supernatant, APPsα (FIG. 2)
Method: as §1, with “The cells were recovered in a 1.5 mL tube and centrifuged at 4,000×g/4° C./10 min. The supernatant was removed and the cells were preserved at −80° C. before sample preparation. The frozen cells were lysed in 40 μL of solubilization buffer containing 1% Triton X-100, protease inhibitor cocktail Complete™ EDTA-free (Roche) and 50 mM Tris-HCl on ice. The cell lysate was incubated on ice for 60 min, centrifuged at 4° C., 21,900×g for 30 min, and the supernatant was recovered and used as a solubilization cell extract.” left out
as §2

[7] = coefficient of partition for octanol, in accordance with Fudouji et al. 2009; cited from earlier work
[8] = target: T1, β-secretase (Homo sapiens, UniProt P56817); assay: β-secretase activity (APPsβ, western blot); type: cell-based; details: APP-H4 culture supernatant, APPsβ (FIG. 2)
T1 construct: endogenous in cells; host or cells: APP-H4 cells (culture supernatant analysed)
Method: as §1, with “extract. […]” for “extract.”
as §2

[9] = system: neprilysin; assay: neprilysin activity staining of primary culture nerve cells; type: cell-based; details: mouse primary culture nerve cells, 48 hr; Minocycline 5 μM, Somatostatin and Harmine 1 μM, others 10 μM (FIG. 4C)
Method: This is a method of measuring the amount of neprilysin localized on the cell membrane surface by using cultured cells. Since Aβ is secreted extracellularly, the more neprilysin is present on the cell membrane, the more efficiently Aβ can be degraded and removed. The following procedure was performed according to a previous report (JP-A-2004-151079; Saito T., Iwata N., et al., Nat. Med. 11(4), 434-439, 2005).
Nerve cells prepared from mouse embryocerebral cortex and hippocampus were cultured and fixed, and reacted with a substrate. After completion of the reaction, aminopeptidase-phosphoramidon mixture and nitrosalicylaldehyde solution were sequentially added and reacted. For the cells after completion of the reaction, positively stained images were observed using a filter for argon laser and rhodamine under a confocal laser microscope. More conveniently, it is also possible to observe positively stained images by using a FITC filter under a fluorescence microscope. When the substrate is degraded by neprilysin, an insoluble fluorescence reaction product is formed, and the site where neprilysin is present is visualized in yellow (pseudocolor and could be green). When the cells are stained by this method, the copresence of thiorphan, which is a specific inhibitor of neprilysin, causes disappearance of the positively stained images, and therefore, the presence of neprilysin on the cell surface of primary culture nerve cells of mouse embryocerebral cortex and hippocampus can be confirmed.
The nerve cells prepared from mouse embryocerebral cortex and hippocampus were cultured, the following test compounds were individually added at a given concentration from day 7 to day 21 of culture, and further cultured for 48 hr. After completion of the culture, the neprilysin activity of the mouse primary culture nerve cells was visualized and observed by the method shown in the above-mentioned 1. The stained images were quantified by an image analysis software (MetaMorph, ver. 7.7 (Universal Imaging Corporation, Downington, Pa.)) and studied. […]

T1 sequence (P56817 46-501): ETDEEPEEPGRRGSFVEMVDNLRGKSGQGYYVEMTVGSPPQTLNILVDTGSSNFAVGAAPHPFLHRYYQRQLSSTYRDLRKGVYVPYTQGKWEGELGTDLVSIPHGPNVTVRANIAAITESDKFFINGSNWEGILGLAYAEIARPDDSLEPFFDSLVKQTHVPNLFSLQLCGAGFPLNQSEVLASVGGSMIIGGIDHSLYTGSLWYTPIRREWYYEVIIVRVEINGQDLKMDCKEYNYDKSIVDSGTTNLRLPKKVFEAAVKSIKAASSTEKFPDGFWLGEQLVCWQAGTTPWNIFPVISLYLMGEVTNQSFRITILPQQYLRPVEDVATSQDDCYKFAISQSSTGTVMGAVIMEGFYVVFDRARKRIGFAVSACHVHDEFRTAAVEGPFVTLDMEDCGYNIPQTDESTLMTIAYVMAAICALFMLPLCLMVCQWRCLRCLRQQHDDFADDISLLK

Row | SMILES | modulator class (neprilysin / α-secretase / β-secretase) [1] | neprilysin activity potentiating action [2] | ADAM17 expression at the mRNA level [3] | expression amount of neprilysin at the protein level [4] | extracellularly secreted APPsα/APPsβ ratio [5] | α-secretase activity [6] | log P octanol [7] | β-secretase activity, remaining relative to control [8] | neprilysin activity potentiating action (activity staining) [9]
1 | CC(C)=CCC/C(C)=C/Cc1c(O)cc(O)c2c1O[C@H](c1cc(O)c(O)c(O)c1)[C@H](OC(=O)c1cc(O)c(O)c(O)c1)C2 [NUP-16] | double modulator | about 1.8 times that of control | about 1.2 times that of control | about 1.8 times that of control | about 1.6 times that of control | about 1.7 times that of control | 2.55 |  | 
2 | C/C(=C\Cc1c(C(=O)O[C@@H]2Cc3c(O)cc(O)cc3O[C@@H]2c2cc(O)c(O)c(O)c2)cc(O)c(O)c1O)CCCC(C)CCCC(C)CCCC(C)C (some centres unmarked) [NUP-18] | triple modulator | about 3.8 times that of control |  | about 3.8 times that of control | about 2.1 times that of control | about 1.2 times that of control |  | about 43 % that of control | 
3 | COc1ccc2c(c1)[nH]c1c(C)nccc12 [Harmine] |  |  |  |  |  |  |  |  | neprilysin activity potentiating action
4 | Oc1ccc(/C=C/c2cc(O)cc(O)c2)cc1 [Resveratrol] |  | about 1.4 times that of control |  |  |  |  |  |  | neprilysin activity potentiating action
5 | CN(C)CCCN1c2ccccc2Sc2ccc(Cl)cc21 [Chlorpromazine] |  |  |  |  |  |  |  |  | neprilysin activity potentiating action
